SMILES strings stand for the structures. Where two headings read alike, the source gives them in different places.

Assay [1] has as its system unresectable HCC (uHCC). The following applies: placebo 4.2 months; cited from earlier work.
The test system of assay [2] is unresectable HCC (uHCC). The following applies: patients with uHCC; placebo 7.9 months; cited from earlier work.
The next assay concerns HCC-PDX model 217. In words: Patient-derived HCC xenograft model 217, tumor growth. It counts as in vivo, BALB/c nude mice. The following applies: for Mean TV: day 13, R 10 / S 30 mg/kg/day oral; for RTV: end of study (RTV analysis day R 24, S 20). Here is the method: (§1) The PDX studies were carried out by WuXi AppTec (Shanghai, China). HCC-PDX models were originally established from surgically resected tumor tissue that was implanted in 6–8-week-old female BALB/c nude mice. Animal studies were performed according to the guidelines approved by the Institutional Animal Care and Use Committee of Wuxi AppTec, which follow the guidance of the Association for the Assessment and Accreditation of Laboratory Animal Care. Animals were routinely monitored for their health status and their body weights. Treatment was suspended and/or doses reduced at body weight losses >10%. Animals were euthanized when the tumor size exceeded 2000 mm^3. Pieces from tumor xenografts (∼30 mm^3) from passages 4–8 (ST1) were implanted subcutaneously at the right flank, and tumors were grown to an average size of about 150–200 mm^3. […] Tumor size was measured twice weekly using caliper measurements. Tumor volume (mm^3) was calculated using the formula 0.5 a × b^2, where a and b are the long and short diameters of the tumor, respectively. TGI was assessed either by calculating the ratio of the mean tumor volumes of treated and control groups or by determination of the RTV, which relates tumor volumes at any given day of treatment to the volume at the first treatment day.
(§2) In the syngenic orthotopic H129 model, differences in survival times between groups were analyzed for significance using log-rank tests. Analysis of tumor volumes of the HCC-PDX models was performed with log2-transformed values on defined days of measurement based on the assumption of their log-normal distribution. […] All respective statistical test results were derived from a common linear model that allows for individual variances in the different groups. The adjustment for multiple testing was carried out using Šidák correction at a significance level of 0.05. Back transformation of the mean difference of log2-transformed tumor volumes led to the ratios of the compared groups, whereby ratios of 1 reflect no difference in tumor volumes and ratios below or above 1 reflect smaller or larger tumor volumes, respectively, of the respective second group. The analyses of RTV were carried out in a similar fashion without the log2 transformation of values. Bead-based western data were analyzed (described in [15]) using the MEV 4.8.1 software package. A p-value <0.05 was regarded as significant. All statistical analyses were performed with SAS® 9.4 [34].

For the next assay, the system named is HCC-PDX model 61. The assay can be described thus: Patient-derived HCC xenograft model 61, tumor growth. The format is in vivo, BALB/c nude mice. The conditions noted are these: for Mean TV: day 25, R 10 / S 30 mg/kg/day oral; for RTV: end of study (RTV analysis day R 42, S 36). On the procedure: as §1, §2
In assay [3] the test system is HCC-PDX model 189 xenografts. The assay can be described thus: DigiWest bead-based multiplex western blot of treated xenografts. The format is in vivo, BALB/c nude mice. The conditions noted are these: 24 hours after last dose, sorafenib 30 mg/kg/day. On the procedure: For high-content Western analysis, DigiWest was performed as described by Treindl et al.. In brief, xenograft tissue was ground by a Mikro-Dismembrator (Sartorius) and subsequently lysed by the addition of 2× LDS lysis buffer (Life Technologies™) and heated to 95°C for 9 minutes with several vortexing steps. Undissolved material was removed by consecutive centrifugation at 20°C for 2 minutes at 300 x g, 5 minutes at 16,000 x g, and through a QIAshredder homogenizer tube (Qiagen) for 5 minutes at 16,000 x g. Protein concentration was determined by in-gel staining. 3 μL lysate was separated by SDS-PAGE stained with IRDye® Blue and detected with a Li-COR Odyssey Infrared Imaging System (Li-COR Biosciences, Bad Homburg, Germany) at 700 nm. Next, 12 μg protein per sample was separated using 4–12% Bis-Tris gels (Life Technologies™) according to the manufacturer’s instructions. Blotting onto PVDF membranes (Millipore) was performed under standard conditions. Proteins immobilized on the blotting membrane were biotinylated (NHS-PEG12-Biotin, Thermo Scientific) and individual sample lanes were cut into 96 strips each (height 0.5 mm each, strip width 7.5 mm) using an electronic cutting tool (Silhouette SD). Each individual strip was placed in a separate well of a 96-well plate, and protein was eluted for 2 hours in 10 μL elution buffer (8 M urea, 1% Triton-X100 in 100 mM Tris-HCl, pH 9.5). After the addition of 90 μL of dilution buffer (5% BSA in PBS, 0.02% sodium azide, 0.05% Tween-20), 96 different Neutravidin-coated Luminex bead sets (40,000 beads/well) were added to the individual wells, and eluted biotinylated proteins were captured on the bead surface during overnight incubation. After incubation, the Luminex beads were pooled, washed, and stored in storage buffer (1% BSA, 0.05% Tween-20, 0.05% sodium azide in PBS) at 4°C.
For antibody incubation, an aliquot of the bead pool was transferred into an assay plate and 30 μL of diluted western blot antibody in assay buffer (Blocking Reagent, Roche Applied Science; 0.05% Tween 20, 0.02% sodium azide, 0.2% milk powder) was added per well. 116 antibody incubations on 12 samples were performed overnight at 4°C. For read-out, beads were washed twice with 100 μL of PBST before species-specific PE-labeled secondary antibodies (Jackson) were added in 30 μL of assay buffer for 1 hour. […]
DigiWest analysis was performed as previously described. In brief, data generated by the Luminex instrument were analyzed using a dedicated analysis tool that visualizes the fluorescent signals as bar graphs and identifies antibody-specific peaks. […] After background correction, specific signal intensities are calculated as the integral of the identified peak.

For assay [4], the system named is uHCC progressed on sorafenib treatment. Details: method as in PMID 27932229. The conditions noted are these: patients with uHCC who progressed on sorafenib, cited from earlier work.

With `CNC(=O)c1cc(Oc2ccc(NC(=O)Nc3ccc(Cl)c(C(F)(F)F)c3)cc2)ccn1` [Sorafenib], the “Median OS” value in the assay with unresectable HCC (uHCC) [1] is 6.5 months. Moreover, the “Median OS” value in the assay with unresectable HCC (uHCC) [2] is listed as 10.7 months. In the assay on HCC-PDX model 217, the “Mean TV” value was determined as 1087.45 mm^3 and the RTV is 10.84. Besides, the “log TV Differences of least square-means, compound vs vehicle” value in the assay on HCC-PDX model 217 (day 13, log2-transformed TV) is given as -10,119. In the assay with HCC-PDX model 61, the “Mean TV” value was determined as 424.86 mm^3 and the RTV is 5.28. Moreover, in assay [3], the “FGF-1 protein expression vs vehicle” value was “downregulated”, the “Full-length PARP protein expression vs vehicle” value is “significantly downregulated”, the “Mst2 protein expression vs vehicle” value is “downregulated” and the “cdc2-pY15 protein expression vs vehicle” value is recorded as “downregulated”.

On to `CNC(=O)c1cc(Oc2ccc(NC(=O)Nc3ccc(Cl)c(C(F)(F)F)c3)c(F)c2)ccn1` [Regorafenib], for which the “Hazard ratio for OS vs placebo” value in assay [4] (95% CI 0.50, 0.79) was 0.63. The “Median OS” value in assay [4] (placebo 7.8 months) is 10.6 months. Moreover, the “RTV Differences of least square-means, regorafenib vs sorafenib” value in the assay with HCC-PDX model 217 (RTV analysis day R 24, S 20) was -14,902; in the assay with HCC-PDX model 61 (RTV analysis day R 42, S 36) it was -19.5. The “log TV Ratio, compound vs vehicle (T/C)” value with HCC-PDX model 217 (day 13) was 0.45; with HCC-PDX model 61 (day 25), 0.26. In addition, the “log TV Ratio, regorafenib vs sorafenib” value with HCC-PDX model 217 (day 13) was 0.92; in the assay on HCC-PDX model 61 (day 25) it was 0.72. The “Mean TV” value with HCC-PDX model 217 came to 932.43 mm^3; with HCC-PDX model 61, 331.96 mm^3. The “log TV Differences of least square-means, compound vs vehicle” value in the assay with HCC-PDX model 217 (day 13, log2-transformed TV) was -11,395. Also, the “log TV Differences of least square-means, regorafenib vs sorafenib” value in the assay with HCC-PDX model 217 (day 13, log2-transformed TV) is given as -0.1276; in the assay with HCC-PDX model 61 (day 25, log2-transformed TV) it was -0.4771. Further, the RTV is on record as 12.77 in the assay with HCC-PDX model 217 and 5.43 with HCC-PDX model 61.

Source of the values: PMC5739799 (Oncotarget, 2017).
